# US9718817B2, “Aryl and heteroaryl ether compounds as ROR gamma modulators” (Glenmark Pharmaceuticals S.A., priority 2014, dated 2017)
# pIC50: −log10 of the molar value.
# Target: T1, GST-tagged ROR gamma ligand binding domain (LBD) (Homo sapiens, UniProt P51449)
# T1 construct: purchased Invitrogen
# T1 sequence (P51449 269-508 limits assumed): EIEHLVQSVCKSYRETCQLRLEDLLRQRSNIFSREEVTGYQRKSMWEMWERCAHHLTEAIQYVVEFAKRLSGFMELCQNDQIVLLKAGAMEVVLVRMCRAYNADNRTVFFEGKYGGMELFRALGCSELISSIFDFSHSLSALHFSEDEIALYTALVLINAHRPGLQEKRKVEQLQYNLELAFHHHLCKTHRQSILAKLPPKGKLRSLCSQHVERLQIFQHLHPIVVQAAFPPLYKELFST
# Experiment: TR-FRET assay for ROR gamma (LanthaScreen co-activator peptide recruitment)
# Type: biochemical
# Details: for pIC50: class symbols, from dose response curve; for inhibition at 1 µM: compound 1 μM; for inhibition at 1 µM / inhibition at 10 µM: TR-FRET ratio 520/495, percent of control; for inhibition at 10 µM: compound 10 μM
# Procedure, shortened: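 Antagonist mode: 10 nM GST-RORγ LBD pre-incubated with compound 1 h at 22 °C in 25 mM HEPES pH 7.4, 100 mM NaCl, 5 mM DTT, 0.01% BSA, 4% DMSO final. Then 300 nM fluorescein-D22 co-activator peptide plus 10 nM Tb-anti-GST added, 1 h at room temperature. IC50 by nonlinear regression of the 520/495 TR-FRET ratio as percent of no-compound control.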
SMILES,pIC50,inhibition at 1 µM [%],inhibition at 10 µM [%]
"CCS(=O)(=O)c1ccc(CC(=O)Nc2ccc3c(c2)nc(C(C)(C)Oc2ccc(F)cc2F)n3CCF)cc1 [Example 145, N-(2-(2-(2,4-Difluorophenoxy)propan-2-yl)-1-(2-fluoroethyl)-1H-benzo[d]imidazol-5-yl)-2-(4-(ethylsulfonyl)phenyl)acetamide]",> 7.30,79.7,85.8
"CCS(=O)(=O)c1ccc(CC(=O)Nc2ccc(OC3(c4ccc(Cl)c(Cl)c4)COC3)cc2)cc1 [Example 46, N-{4-[3-(3,4-Dichlorophenyl)-oxetan-3-yloxy]-phenyl}-2-(4-ethanesulfonyl-phenyl)-acetamide]",< 7.00,68.1,86.3
"CCS(=O)(=O)c1ccc(CC(=O)Nc2ccc(OC3(c4ccc(Cl)cc4F)CC3)cc2)cc1 [Example 51, N-{4-[1-(4-Chloro-2-fluoro-phenyl)-cyclopropoxy]-phenyl}-2-(4-ethanesulfonyl-phenyl)-acetamide]",> 7.30,85.9,87.7
"CCS(=O)(=O)c1ccc(CC(=O)Nc2ccc(OC(C)(C)Cn3c(C)cc4cc(F)ccc43)cc2)cc1 [Example 30, 2-[4-(Ethylsulfonyl)phenyl]-N-(4-{[1-(5-fluoro-2-methyl-1H-indol-1-yl)-2-methylpropan-2-yl]oxy}phenyl)acetamide]",,67.7,70.7
"CCS(=O)(=O)c1ccc(CC(=O)Nc2ccc(OC3(c4ccc(Cl)cc4F)CCOCC3)cc2)cc1 [Example 36, N-(4-{[4-(4-Chloro-2-fluorophenyl)tetrahydro-2H-pyran-4-yl]oxy}phenyl)-2-[4-(ethylsulfonyl)phenyl]acetamide]",,69.9,74.7
"CCS(=O)(=O)c1ccc(CC(=O)Nc2cc(F)c(OC(C)(C)c3ncc(Cl)cc3Cl)c(F)c2)cc1 [Example 110, N-{4-[1-(3,5-Dichloro-pyridin-2-yl)-1-methyl-ethoxy]-3,5-difluoro-phenyl}-2-(4-ethanesulfonyl-phenyl)-acetamide]",,23.7,47.6
"CCS(=O)(=O)c1ccc(CC(=O)Nc2ccc(C#CC(C)(C)Oc3ccc(Cl)cc3)cc2)cc1 [Example 64, N-{4-[3-(4-Chloro-phenoxy)-3-methyl-but-1-yn-1-yl]-phenyl}-2-(4-ethanesulfonyl-phenyl)-acetamide]",> 7.30,82.2,84.2
"CCS(=O)(=O)c1ccc(CC(=O)Nc2ccc(OC3(c4ccc(Cl)cc4F)CC3)c(F)c2)cc1 [Example 99, N-{4-[1-(4-Chloro-2-fluoro-phenyl)-cyclopropoxy]-3-fluoro-phenyl}-2-(4-ethanesulfonyl-phenyl)-acetamide]",> 7.30,81.7,81.1
"CCn1c(C2(Oc3ccc(NC(=O)Cc4ccc(S(=O)(=O)CC)cc4)cc3)CC2)nc2ccc(Cl)cc21 [Example 23, N-(4-{[1-(6-Chloro-1-ethyl-1H-benzimidazol-2-yl)cyclopropyl]oxy}phenyl)-2-[4-(ethylsulfonyl)phenyl]acetamide]",< 7.00,69.6,86
"CCN(C(=O)C(C)(C)Oc1ccc(NC(=O)Cc2ccc(S(=O)(=O)CC)cc2)cc1F)c1ccc(Cl)c(F)c1 [Example 131, N-(4-Chloro-3-fluorophenyl)-N-ethyl-2-(4-(2-(4-(ethylsulfonyl)phenyl)acetamido)-2-fluorophenoxy)-2-methylpropanamide]",7.00 to 7.30,69.8,72.9
"CCS(=O)(=O)c1ccc(CC(=O)Nc2ccc(OC3(c4ccc(C(F)(F)F)c(F)c4)CCOCC3)cc2)cc1 [Example 41, 2-(4-Ethanesulfonyl-phenyl)-N-{4-[4-(3-fluoro-4-trifluoromethyl-phenyl)-tetrahydro-pyran-4-yloxy]-phenyl}-acetamide]",< 7.00,78,87.2
"CCS(=O)(=O)c1ccc(CC(=O)Nc2ccc(C#CC(C)(C)Oc3ccc(F)c(F)c3)cc2)cc1 [Example 70, N-{4-[3-(3,4-Difluoro-phenoxy)-3-methyl-but-1-yn-1-yl]-phenyl}-2-(4-ethanesulfonyl-phenyl)-acetamide]",> 7.30,77.7,81.3
"CCS(=O)(=O)c1ccc(CC(=O)Nc2ccc(OC3(c4ccc(Cl)cc4Cl)COC3)cc2)cc1 [Example 47, N-{4-[3-(2,4-Dichlorophenyl)-oxetan-3-yloxy]-phenyl}-2-(4-ethanesulfonyl-phenyl)-acetamide]",> 7.30,90.3,93.2
"CCS(=O)(=O)c1ccc(CC(=O)Nc2ccc(OC3(c4ccc(F)cc4F)CCC3)c(F)c2)cc1 [Example 141, N-(4-(1-(2,4-Difluorophenyl)cyclobutoxy)-3-fluorophenyl)-2-(4-(ethylsulfonyl)phenyl)acetamide]",> 7.30,81.4,75.2
"CCn1c(C(C)(C)Oc2ccc(NC(=O)Cc3ccc(S(=O)(=O)CC)cc3)cc2)nc2cccc(Cl)c21 [Example 19, N-(4-{[2-(7-Chloro-1-ethyl-1H-benzimidazol-2-yl)propan-2-yl]oxy}phenyl)-2-[4-(ethylsulfonyl)phenyl]acetamide]",7.00 to 7.30,85.5,88.9
"CCS(=O)(=O)c1ccc(CC(=O)Nc2ccc(C#CC(C)(C)Oc3ccc(Cl)c(Cl)c3)cc2)cc1 [Example 62, N-{4-[3-(3,4-Dichlorophenoxy)-3-methylbut-1-yn-1-yl]phenyl}-2-[4-(ethylsulfonyl)phenyl]acetamide]",> 7.30,86.3,90.2
"CCS(=O)(=O)c1ccc(CC(=O)Nc2ccc(C#CC(C)(C)Oc3ccc(C(F)(F)F)cc3)cc2)cc1 [Example 76, 2-(4-Ethanesulfonyl-phenyl)-N-{4-[3-methyl-3-(4-trifluoromethyl-phenoxy)-but-1-yn-1-yl]-phenyl}-acetamide]",> 7.30,82.2,86.2
"CCS(=O)(=O)c1ccc(CC(=O)Nc2ccc(OC3(c4ccc(Cl)c(Cl)c4)CC3)nc2)cc1 [Example 53, N-{6-[1-(3,4-Dichloro-phenyl)-cyclopropoxy]-pyridin-3-yl}-2-(4-ethanesulfonyl-phenyl)-acetamide]",,52.6,76.5
"CCS(=O)(=O)c1ccc(CC(=O)Nc2ccc(OC3(c4ccc(Cl)c(F)c4)COC3)c(F)c2)cc1 [Example 102, N-{4-[3-(4-Chloro-3-fluoro-phenyl)-oxetan-3-yloxy]-3-fluoro-phenyl}-2-(4-ethanesulfonyl-phenyl)-acetamide]",> 7.30,81.7,84
"CCS(=O)(=O)c1ccc(CC(=O)Nc2ccc(OC3(c4ccc(Cl)c(F)c4)CC3)c(F)c2)cc1 [Example 100, N-{4-[1-(4-Chloro-3-fluoro-phenyl)-cyclopropoxy]-3-fluoro-phenyl}-2-(4-ethanesulfonyl-phenyl)-acetamide]",> 7.30,79.4,87.2
"CCC(CC)(Oc1ccc(NC(=O)Cc2ccc(S(=O)(=O)CC)cc2)cc1)c1ccc(F)cc1F [Example 13, N-{4-[1-(2,4-Difluoro-phenyl)-1-ethyl-propoxy]-phenyl}-2-(4-ethanesulfonyl-phenyl)-acetamide]",,56.2,68.8
"CCS(=O)(=O)c1ccc(CC(=O)Nc2ccc(OC3(c4nc5cc(Cl)ccc5n4C)CCC3)cc2)cc1 [Example 25, N-{4-[1-(5-Chloro-1-methyl-1H-benzoimidazol-2-yl)-cyclobutoxy]-phenyl}-2-(4-ethanesulfonyl-phenyl)-acetamide]",7.00 to 7.30,85.3,94.2
"CCS(=O)(=O)c1ccc(CC(=O)Nc2ccc(OC(C)(C)c3ncc(Cl)cc3Cl)c(F)c2)cc1 [Example 95, N-{4-[1-(3,5-Dichloro-pyridin-2-yl)-1-methyl-ethoxy]-3-fluoro-phenyl}-2-(4-ethanesulfonyl-phenyl)-acetamide]",> 7.30,75.7,77.6
"CCS(=O)(=O)c1ccc(CC(=O)Nc2ccc(OC3(c4ccc(Cl)cc4Cl)CC3)c(F)c2)cc1 [Example 138, N-(4-((1-(2,4-Dichlorophenyl)cyclopropyl)oxy)-3-fluorophenyl)-2-(4-(ethylsulfonyl)phenyl)acetamide]",> 7.30,86.8,83.6
"CCS(=O)(=O)c1ccc(CC(=O)Nc2ccc(OC3(c4ccc(Cl)c(F)c4)CCOCC3)c(F)c2)cc1 [Example 103, N-{4-[4-(4-Chloro-3-fluoro-phenyl)-tetrahydro-pyran-4-yloxy]-3-fluoro-phenyl}-2-(4-ethanesulfonyl-phenyl)-acetamide]",> 7.30,73.6,80.2
"CCS(=O)(=O)c1ccc(CC(=O)Nc2ccc(C#CC(C)(C)Oc3ccc(Cl)cc3F)cc2)cc1 [Example 65, N-{4-[3-(4-Chloro-2-fluoro-phenoxy)-3-methyl-but-1-yn-1-yl]-phenyl}-2-(4-ethanesulfonyl-phenyl)-acetamide]",> 7.30,83.9,88.2
